Measurements taken from US10111901B2, “Beta-glucan in combination with anti-cancer agents affecting the tumor microenvironment” (Biothera, Inc., priority 2014, dated 2018).

Tests used:
Tregs (CD4+CD25+) = test: Treg suppression assay; assay type: cell-based, human
Protocol: Since these PBMC cultures contain Tregs, the suppressive ability of Tregs seem to be altered in the presence of soluble β-glucan and studies were carried out to determine if β-glucan affected Treg suppression. Plasma from β-glucan-treated or vehicle-treated whole blood (described above) was added to 25,000 isolated CFSE-labeled autologous CD4 T cells (CD4^+CD25^−) along with increasing numbers of isolated autologous Tregs (CD4^+CD25^+) resulting in wells with increasing ratios. Cells were then stimulated with 50,000 T cell activating CD3/28 beads for 3 days. Proliferation was subsequently measured by CFSE dilution and quantified by Division Index, which was used to calculate the % suppression of Tregs in the co-culture. % suppression=100−(Division Index of Treg well/Division Index of 1:0 well)[…].
The Treg suppression assay was conducted as described above, and after 3 days of co-culture, supernatants were analyzed for IFN-gamma production.

M2a macrophages = test: Flow cytometry of CD163 and CD86 on activated M2a macrophages cultured in IL-4; assay type: cell-based, human; conditions: M2a macrophages cultured in IL-4, immunosuppressive conditions
Protocol: Steps for an alternative method for in vitro culture and characterization of human macrophages that includes activation of M1 and M2 macrophages (designated M1a and M2a macrophages) are outlined below. This methodology was used in the next series of experiments.
Phenotypic and functional evaluation of β-glucan-treated M2a and β-glucan-treated M2 macrophages in the presence of immunosuppressive cytokines was carried out. M2 or M2a macrophages were prepared as described above. On day 3, tumor-conditioned medium (TCM) was added M2 macrophage cultures to account for 70% of the volume of the culture and then evaluated for CD163 expression and functional activity on day 6. […] M2a macrophages were cultured in IL-4 as described above.
The β-glucan-treated M2a macrophages cultured in IL-4 and M2 macrophages cultured in TCM were first evaluated for CD163 and CD86 expression. CD163 and CD86 were evaluated by flow cytometry and median MFI was calculated for isotype control staining and surface antigen staining and the results are shown in Table 5.

CD4 and CD8 T cells = test: T cell proliferation and activation of PBMCs cultured in plasma from treated whole blood; assay type: cell-based, human
Protocol: To obtain plasma, whole blood was treated for 6 hours with 25 μg/mL β-glucan or vehicle, spun down and the plasma removed. 50,000 autologous CFSE-labeled PBMCs were cultured in the treated plasma for 3 days in the presence of 50,000 T cell activating CD3/28 beads (DYNABEADS Human T-Activator CD3/CD28 for T Cell Expansion and Activation). At the end of the culture, PBMCs were stained with CD4 and CD8 and T cell proliferation was measured by CFSE dilution.
Next, to show the effect of soluble β-glucan on CD4 and CD8 cell activation, the T cell proliferation assay described above was again carried out. At day 3, however, the cells were stained for markers of activation including Granzyme B production and CD25 upregulation.
To determine whether the enhancement of T cell proliferation by β-glucan is direct or indirect, T cell proliferation assays were carried out as described above except the plasma from untreated (vehicle) whole blood was then either treated with β-glucan or vehicle prior to adding to autologous PBMCs. CFSE dilution was quantitated by Division Index using FLOWJO software and plotted as fold change over vehicle control. The results shown in FIG. 5C indicate that β-glucan's enhanced effect is due to indirect mechanisms.

MiaPaCa = test: PD-L1 upregulation in MiaPaCa tumor cells by treated M2 macrophages; assay type: cell-based
Protocol: β-glucan- and vehicle-treated M2 macrophages and β-glucan-treated M2 macrophages+ABA were cultured with high binder serum and low binder serum to evaluate PD-L1 expression on tumor cells.

CD4 T cells = test: Mac-CD4 T co-culture surface marker modulation on T cells; assay type: cell-based, human
Protocol: For evaluation of Mac-CD4 T cell surface marker modulation, M2 macrophages were co-cultured with T cells as described above and cells were harvested on day 8, day 9 and day 10 to perform surface receptor staining on both M2 macrophages and T cells.
Changes in surface marker expression on both macrophages and CD3 & CD28-stimulated T cells were also measured. Vehicle- and β-glucan-treated M2 macrophages and CD T cells from the co-cultures were evaluated by flow cytometry for the modulation of co-stimulatory or co-inhibitory molecules. FIG. 8C and Table 9 are representative results from 2 different experiments.

[1] = T cells co-cultured with β-glucan-treated M2 macrophages relative to vehicle-treated

## β(1,6)-[poly-(1,3)-D-glucopyranosyl]-poly-β(1,3)-D-glucopyranose [β-glucan]
Tregs (CD4+CD25+); Treg suppression assay, 3 days, 8:1 T cell to Treg ratio
  IFN-gamma production: enhanced IFN-gamma production
Tregs (CD4+CD25+); plasma from β-glucan-treated whole blood vs vehicle-treated
  suppressive capacity of Tregs: significant decreases
M2a macrophages
  CD86 median MFI: 4572
  CD163 median MFI: 309
CD4 and CD8 T cells; plasma from whole blood treated 6 hours with 25 μg/mL β-glucan, vs vehicle
  CD4 and CD8 proliferation (CFSE dilution): significant enhancement
CD4 and CD8 T cells; β-glucan-treated plasma, day 3
  CD4 and CD8 cell activation (Granzyme B production, CD25 upregulation): enhances CD4 and CD8 cell activation
MiaPaCa; β-glucan-treated M2 macrophages with addition of ABA, low binders
  expression of PD-L1 on tumor cells: also increased expression
MiaPaCa; β-glucan-treated M2 macrophages, high binders
  expression of PD-L1 on tumor cells: increased expression
CD4 T cells; [1]
  Change in MFI on T cells: 4-1BB: No change
  Change in MFI on T cells: CD28: No change
  Change in MFI on T cells: CD40L: No change
  Change in MFI on T cells: CTLA-4: No change
CD4 T cells; T cells co-cultured with β-glucan-treated M2 macrophages relative to vehicle-treated (day 9)
  Change in MFI on T cells: PD1 (CD279): Increase
